Measured values: PMC4667193 (Scientific Reports, 2015)

Experiments:
[1] = system: rat primary hippocampal cell culture; test: MTT viability assay, AEME-induced neurotoxicity; type: cell-based; settings: 10 nM antagonist/inhibitor added 30 minutes prior to 10^−3 M AEME, 24 hours, % of control
Protocol: Neuronal viability was evaluated in the hippocampal cell culture using the 3-(4,5-dimethylthiazol-2-yl)-2,5-diphenyltetrazolium bromide (MTT; Sigma) reduction assay, with some modification. Briefly, after 24 hours of incubation with 10^−3 M AEME in the absence and in the presence of 10 nM pirenzepine hydrochloride (M1 selective antagonist; Sigma), 10 nM p-F-HHSiD (M3 selective antagonist; Sigma) and the specific inhibitor of different isoforms of PLC U73122 (10 nM)[55] (Sigma), all the medium was removed, and 100 μL of MTT solution, containing 5 mg/mL MTT in PBS and neurobasal medium without phenol red (1:9, v/v) were added. After 3 hours of incubation with MTT at 37 °C in a humidified atmosphere of 5% CO2, the MTT solution was removed and 200 μL of dimethyl sulfoxide was added to each well. After 30 minutes of shaking, the absorbance was measured at 570 nm in a multiwell plate reader (BioTek Synergy H1 Hybrid Reader). Potassium chloride (250 mM) was used as a positive control of neuronal death. Muscarinic antagonists, as well as the iPLC, were added 30 minutes prior to incubation with AEME. The antagonist concentration used was near the pKi[25][56]. A control containing 0.002% DMSO was used, since the iPLC stock solution was previously dissolved in this solvent. The assay was performed in quadruplicate, and the results were expressed as a percentage of the control value.

[2] = system: rat primary hippocampal cell culture; test: total [^3H]inositol phosphate accumulation in hippocampal cells; type: cell-based; settings: 10^−8 to 10^−3 M
Protocol: Hippocampal cells (1 × 10^6 cells/well) were allowed to equilibrate for 10 minutes with a nutrient solution of the following composition (mM): NaCl 157.00; KCl 5.60; CaCl2 0.27; MgCl2 3.00; NaHCO3 1.80; glucose 5.50 (pH 7.0–7.2) at 37 °C under constant shaking. Cells were incubated with 5 μCi of myo[^3H]inositol (specific activity 18.0 Ci/mmol) for 80 minutes, and lithium chloride (10 mM) for additional 30 minutes. Afterwards, the cells were incubated in the absence (basal level) and in the presence of carbachol (positive control) and AEME (10^−8 to 10^−3 M) for 10 minutes. Cells were removed from the plate using a 0.1 M NaOH solution and washed three times with nutrient solution, transferred to 2 mL of methanol:chloroform (2:1 v-v) at 4 °C and homogenized with a Ultra-Turrax T25 homogenizer at 9500 rpm. Chloroform (0.62 mL) and H2O (0.93 mL) were added to the homogenate, and the solution was centrifuged for 5 minutes at 1,000× g to separate aqueous and organic phases. Total [^3H]inositol phosphate was measured as previously described by Ascoli et al.[45] with slight modification. The aqueous layer was neutralized with 0.1 M HCl and then mixed with 1 mL anion-exchange resin (Dowex AG-X8, formate form, 200–400 mesh), allowed to equilibrate for 30 minutes at room temperature, under agitation, and centrifugated at 1,000× g, for 5 minutes at 4 °C. The resin was then washed sequentially, with 10 mM myo-inositol (2 mL) and 5 mM sodium tetraborate/60 mM sodium formate (2 mL). The resin was incubated for 30 minutes at room temperature with 2 mL of 0.1 M formic acid/1 M ammonium formate). The total [^3H]inositol phosphate was eluted and placed in scintillation vials containing OptiPhase HiSafe 3. The amount of radioactivity was determined in scintillation β-counter (LS 6500 IC, Beckman). Total [^3H]inositol phosphate was expressed as percentage above basal level.

Structure (SMILES)	viable cells [1] [%]	effect on total [^3H]inositol phosphate [2]	concentration giving maximum inositol phosphate accumulation ([2]; 10 minutes)
COc1ccc2c(c1)CC[C@@H]1[C@@H]2CC[C@]2(C)[C@@H](NCCCCCCN3C(=O)C=CC3=O)CC[C@@H]12 [U73122]	102.6		
C[N+](C)(C)CCOC(N)=O [carbachol, reference compound]		concentration-dependent increase	10^−5 M
Cl.O[Si](CCCN1CCCCC1)(c1ccc(F)cc1)C1CCCCC1 (centres unmarked) [p-F-HHSiD, p-fluorohexahydro-sila-difenidol hydrochloride]	85.4		
CN1CCN(CC(=O)N2c3ccccc3C(=O)Nc3cccnc32)CC1 [pirenzepine]	98.4		
